Laboratory results published in patent US20070099941A1, “N-arylalkyl-thienopyrimidin-4-amines and analogs as activators of caspases and inducers of apoptosis and the use thereof” (Cytovia, Inc., priority 2005, published 2007).
pEC50: −log10 of the molar value.

Assays:
Type in all cases: cell-based
[1] = tested on: human breast cancer cell line T-47D; experiment: Caspase cascade activation assay in T-47D cells; conditions: T47D, 24 h or 48 h incubation, read-out: Caspase Activation Potency EC50 T-47D
Experimental: (§1) Human breast cancer cell lines T-47D and human lung cancer cell line H1299 were grown according to media component mixtures designated by American Type Culture Collection+10% FCS (Invitrogen Corporation), in a 5% CO2-95% humidity incubator at 37° C. T-47D and H1299 cells were maintained at a cell density between 50 and 80% confluency at a cell density of 0.1 to 0.6×10^6 cells/mL. Cells were harvested at 600×g and resuspended at 0.65×10^6 cells/mL into appropriate media+10% FCS. An aliquot of 22.5 μL of cells was added to a well of a 384-well microtiter plate containing 2.5 μL of a 10% DMSO in RPMI-1640 media solution containing 0.16 to 100 μM of N-(3,4-methylenedioxybenzyl)-6-phenylthieno[3,2-d]pyrimidin-4-amine or other test compound (0.016 to 10 μM final). An aliquot of 22.5 μL of cells was added to a well of a 384-well microtiter plate containing 2.5 μL of a 10% DMSO in RPMI-1640 media solution without test compound as the control sample. The samples were mixed by agitation and then incubated at 37° C. for 24 h or 48 h in a 5% CO2-95% humidity incubator. After incubation, the samples were removed from the incubator and 25 μL of a solution containing 14 μM of N-(Ac-DEVD)-N′-ethoxycarbonyl-R110 (SEQ ID No.:1) fluorogenic substrate (Cytovia, Inc.; WO99/18856), 20% sucrose (Sigma), 20 mM DTT (Sigma), 200 mM NaCl (Sigma), 40 mM Na PIPES buffer pH 7.2 (Sigma), and 500 μg/mL lysolecithin (Calbiochem) was added. The samples were mixed by agitation and incubated at room temperature. Using a fluorescent plate reader (Model SPECTRAfluor Plus, Tecan), an initial reading (T=0) was made approximately 1-2 min after addition of the substrate solution, employing excitation at 485 nm and emission at 530 nm, to determine the background fluorescence of the control sample. After the 3 h incubation, the samples were read for fluorescence as above (T=3 h).
(§2) The Relative Florescence Unit values (RFU) were used to calculate the sample readings as follows: RFU(T=3h)−Control RFU(T=0)=Net RFU(T=3h)
(§3) The activity of caspase cascade activation was determined by the ratio of the net RFU value for N-(3,4-methylenedioxybenzyl)-6-phenylthieno[3,2-d]pyrimidin-4-amine (Example A) or other test compound to that of control samples. The EC50 (nM) was determined by a sigmoidal dose-response calculation (Prism 3.0, GraphPad Software Inc.).

[2] = tested on: human lung cancer cell line H1299; experiment: Caspase cascade activation assay in H1299 cells; conditions: NCI-H1299, 24 h or 48 h incubation, read-out: Caspase Activation Potency EC50 H1299
Experimental: as §1, §2, §3

[3] = tested on: human breast cancer cell line T-47D; experiment: Inhibition of cell proliferation (GI50, CellTiter-Glo) in T-47D cells; conditions: T47D cells, 48 h, dose for 50% inhibition of cell proliferation
Experimental: (§4) Human breast cancer cell lines T-47D, MX-1 and MDAMB435, human colon cancer cell line HT29, and human lung cancer cell line H1299 were grown and harvested as in Example 26. An aliquot of […] of cells (4.4×10^4 cells/mL) was added to a well of a 96-well microtiter plate containing 5 μL of a 10% DMSO in RPMI-1640 media solution containing 10 nM to 100 μM of N-(3,4-methylenedioxybenzyl)-6-phenylthieno[3,2-d]pyrimidin-4-amine (1 nM to 10 μM final). An aliquot of 45 μL of cells was added to a well of a 96-well microtiter plate containing 5 μL of a 10% DMSO in RPMI-1640 media solution without compound as the control sample for maximal cell proliferation (LMax). The samples were mixed by agitation and then incubated at 37° C. for 48 h in a 5% CO2-95% humidity incubator. After incubation, the samples were removed from the incubator and 25 μL of CellTiter-Glo™ reagent (Promega) was added. The samples were mixed by agitation and incubated at room temperature for 10-15 min. Plates were then read using a luminescent plate reader (Model SPECTRAfluor Plus, Tecan) to give Ltest values.
(§5) Baseline for GI50 (dose for 50% inhibition of cell proliferation) of initial cell numbers was determined by adding an aliquot of 45 μL of cells or 45 μL of media, respectively, to wells of a 96-well microtiter plate containing 5 μL of a 10% DMSO in RPMI-1640 media solution. The samples were mixed by agitation and then incubated at 37° C. for 0.5 h in a 5% CO2-95% humidity incubator. After incubation, the samples were removed from the incubator and 25 μL of CellTiter-Glo™ reagent (Promega) was added. The samples were mixed by agitation and incubated at 37° C. for 10-15 min at room temperature in a 5% CO2-95% humidity incubator. Fluorescence was read as above, (Lstart) defining luminescence for initial cell number used as baseline in GI50 determinations.
(§6) GI50 (dose for 50% inhibition of cell proliferation) is the concentration where [(LTest−Lstart)/(LMax−Lstart)]=0.5.

[4] = tested on: human lung cancer cell line H1299; experiment: Inhibition of cell proliferation (GI50, CellTiter-Glo) in H1299 cells; conditions: NCI-H1299, 48 h, dose for 50% inhibition of cell proliferation
Experimental: as §4, §5, §6

[5] = tested on: human breast cancer cell line MX-1; experiment: Inhibition of cell proliferation (GI50, CellTiter-Glo) in MX-1 cells; conditions: MX1 cells, 48 h, dose for 50% inhibition of cell proliferation
Experimental: as §4, §5, §6

[6] = tested on: human breast cancer cell line MDAMB435; experiment: Inhibition of cell proliferation (GI50, CellTiter-Glo) in MDAMB435 cells; conditions: MDA-MB-435, 48 h, dose for 50% inhibition of cell proliferation
Experimental: as §4, §5, §6

[7] = tested on: human colon cancer cell line HT29; experiment: Inhibition of cell proliferation (GI50, CellTiter-Glo) in HT29 cells; conditions: HT-29, 48 h, dose for 50% inhibition of cell proliferation
Experimental: as §4, §5, §6

Compound	pEC50 [1]	pEC50 [2]	further results
COc1cc(OC)c(CNc2ncnc3cc(I)sc23)c(OC)c1 [Example 17, N-(2,4,6-Trimethoxybenzyl)-6-iodothieno[3,2-d]pyrimidin-4-amine]	< 5.00	< 5.00	
COc1ccc(CNc2ncnc3cc(-c4ccccc4)sc23)cc1 [Example 10, N-(4-Methoxybenzyl)-6-phenylthieno[3,2-d]pyrimidin-4-amine]	5.85	5.57	
Cc1c(-c2ccccc2)sc2c(NCc3ccc4c(c3)OCO4)ncnc12 [Example 8, N-(3,4-Methylenedioxybenzyl)-7-methyl-6-phenylthieno[3,2-d]pyrimidin-4-amine]	< 5.00	< 5.00	
Ic1cc2ncnc(NCc3ccc4c(c3)OCO4)c2s1 [Example 3, N-(3,4-Methylenedioxybenzyl)-6-iodo-thieno[3,2-d]pyrimidin-4-amine]	5.81	5.29	GI50 [3]: 2.07 µM; GI50 [4]: 1.04 µM; GI50 [5]: 2.5 µM; GI50 [6]: 0.997 µM; GI50 [7]: 2.5 µM
COc1cc(OC)c(CNc2ncnc3cc(-c4cccnc4)sc23)c(OC)c1 [Example 19, N-(2,4,6-Trimethoxybenzyl)-6-(pyridin-3-yl)thieno[3,2-d]pyrimidin-4-amine]	5.29	5.54	
COc1ccc(CNc2ncnc3cc(I)sc23)cc1OC [Example 14, N-(3,4-Dimethoxybenzyl)-6-iodothieno[3,2-d]pyrimidin-4-amine]	5.37	5.29	
c1coc(-c2cc3ncnc(NCc4ccc5c(c4)OCO5)c3s2)c1 [Example 4, N-(3,4-Methylenedioxybenzyl)-6-(furan-2-yl)thieno[3,2-d]pyrimidin-4-amine]	5.61	5.62	
Oc1ccc(CNc2ncnc3cc(Br)sc23)cc1 [Example 24, N-(4-Hydroxybenzyl)-6-bromothieno[3,2-d]-pyrimidin-4-amine]	< 5.00	< 5.00	
Oc1ccc(CNc2ncnc3cc(-c4cccnc4)sc23)cc1 [Example 25, N-(4-Hydroxybenzyl)-6-(pyridin-3-yl)thieno[3,2-d]-pyrimidin-4-amine]	< 5.00	< 5.00	
Cc1nc(NCc2ccc3c(c2)OCO3)c2sc(-c3cccnc3)cc2n1 [Example 23, N-(3,4-Methylenedioxybenzyl)-2-methyl-6-(pyridin-3-yl)thieno[3,2-d]pyrimidin-4-amine]	< 5.00	< 5.00	
Brc1cc2ncnc(NCc3ccc4c(c3)OCO4)c2s1 [Example 11, N-(3,4-Methylenedioxybenzyl)-6-bromothieno[3,2-d]pyrimidin-4-amine]	< 5.00	< 5.00	
Cc1nc(NCc2ccc3c(c2)OCO3)c2sc(Br)cc2n1 [Example 21, N-(3,4-Methylenedioxybenzyl)-6-bromo-2-methylthieno[3,2-d]pyrimidin-4-amine]	< 5.00	< 5.00	
c1nc(NCc2ccc3c(c2)OCO3)c2sc(-c3ccoc3)cc2n1 [Example 12, N-(3,4-Methylenedioxybenzyl)-6-(furan-3-yl)thieno[3,2-d]pyrimidin-4-amine]	5.55	5.55	
COc1ccc(OC)c(CNc2ncnc3cc(I)sc23)c1 [Example 18, N-(2,5-Dimethoxybenzyl)-6-iodothieno[3,2-d]pyrimidin-4-amine]	5.64	5.59	
COc1ccc(CNc2ncnc3cc(I)sc23)cc1 [Example 9, N-(4-Methoxybenzyl)-6-iodothieno[3,2-d]pyrimidin-4-amine]	< 5.00	< 5.00	
c1cc(-c2cc3ncnc(NCc4ccc5c(c4)OCO5)c3s2)ccn1 [Example 2, N-(3,4-Methylenedioxybenzyl)-6-(pyridin-4-yl)thieno[3,2-d]pyrimidin-4-amine]	< 5.00	< 5.00	
c1ccc(-c2cc3ncnc(NCc4ccc5c(c4)OCO5)c3s2)nc1 [Example 6, N-(3,4-Methylenedioxybenzyl)-6-(pyridin-2-yl)thieno[3,2-d]pyrimidin-4-amine]	5.36	5.29	
COc1ccc(CNc2ncnc3cc(-c4cccnc4)sc23)cc1OC [Example 15, N-(3,4-Dimethoxybenzyl)-6-(pyridin-3-yl)thieno[3,2-d]pyrimidin-4-amine]	< 5.00	< 5.00	
COc1ccc(CNc2ncnc3cc(I)sc23)c(OC)c1 [Example 16, N-(2,4-Dimethoxybenzyl)-6-iodothieno[3,2-d]pyrimidin-4-amine]	5.89	5.54	
Cc1c(I)sc2c(NCc3ccc4c(c3)OCO4)ncnc12 [Example 7, N-(3,4-Methylenedioxybenzyl)-6-iodo-7-methylthieno[3,2-d]pyrimidin-4-amine]	< 5.00	< 5.00	
c1nc(NCc2ccc3c(c2)OCO3)c2sccc2n1 [Example 1, N-(3,4-Methylenedioxybenzyl)-thieno[3,2-d]pyrimidin-4-amine]	< 5.00	< 5.00	
c1ncc(-c2cc3ncnc(NCc4ccc5c(c4)OCO5)c3s2)cn1 [Example 13, N-(3,4-Methylenedioxybenzyl)-6-(pyrimidin-5-yl)thieno[3,2-d]pyrimidin-4-amine]	5.27	5.27	
CN(Cc1ccc2c(c1)OCO2)c1ncnc2cc(-c3cccnc3)sc12 [Example 22, N-(3,4-Methylenedioxybenzyl)-N-methyl-6-(pyridin-3-yl)thieno[3,2-d]pyrimidin-4-amine]	6.83	6.80	
COc1ccc(OC)c(CNc2ncnc3cc(-c4cccnc4)sc23)c1 [Example 20, N-(2,5-Dimethoxybenzyl)-6-(pyridin-3-yl)thieno[3,2-d]pyrimidin-4-amine]	< 5.00	< 5.00	
